According to a melting point compilation (Tetko et al.; mined from patent text by program, amines drawn as free bases though some values may be those of a salt):

Structure (SMILES) | melting point [°C]
CCCCCc1ccc(-c2cnc(-c3ccc(C#N)cc3)nc2)cc1 | 126
CCOc1ncc(N)cc1C(=O)O | 260 to 262
NC(=O)COc1ccc(OCc2ccccc2)cc1OCc1ccccc1 | 120
CC1(C)OC(=S)Nc2ccc(-c3ccc(F)c(F)c3)cc21 | 209 to 211
COC(=O)C(=CNC1CC1)C(=O)C=Cc1ccc2c(c1)OCO2 | 158 to 160
CCCCNC(=O)[C@@H](C[C@H](O)[C@H](CC1CCCCC1)NC(=O)[C@H](Cc1cscn1)NC(=O)OC(C)(C)C)C(C)C | 201 to 203
CCCNC(=O)C(O)C1c2ccccc2C(=O)N1c1ccc2ccc(C)nc2n1 (stereo not drawn) | 128 to 130
COc1ccc(-c2cn3c(n2)CCC3)cc1 | 116 to 118
C[Si](C)(C)CCSCCCNC(=O)n1cc(F)c(=O)[nH]c1=O | 114 to 115
CN1C(=O)C(NC(=O)CCc2ccc(Cl)cc2Cl)N=C(c2ccccc2)c2ccncc21 (stereo not drawn) | 220 to 221
CC1=Nc2ccccc2N(Cc2ccccc2)C(=O)C1C/C=C/c1ccccc1 (stereo not drawn) | 152 to 154
OC(Cc1ccnc2ccccc12)C(Cl)(Cl)Cl (stereo not drawn) | 190 to 192
C1=CCC2=C(C1)CCc1ccccc1C2 | 42.5 to 43
O=C(c1cccs1)c1cnn2c(Cl)ccnc12 | 148 to 150
COc1cc2c(Nc3ccc(Cl)cc3F)ncnc2cc1OCc1ccnc(C)c1 | 221 to 224
O=C1NC(=O)c2c(F)cccc21 | 176 to 179
CCOC(=O)c1nn(-c2ccccc2Cl)c(=O)c(C#N)c1C | 93 to 95
CCCc1cc(=O)c(C(=O)OC)c(C)[nH]1 | 171 to 172
CCCOc1ccc(N(C)C)cc1-c1ncc(-c2nnn[nH]2)c(=O)[nH]1 | 258 to 259
Cn1cc(C#N)cc1C=O | 125 to 126
CCOC(=O)c1ccc(N2Cc3ccccc3C2=O)cc1 | 182 to 184
CC(C)(C)OC(=O)C1CC(Cc2ccccc2)C(=O)N1C(=O)OC(C)(C)C (stereo not drawn) | 125
O=C(Nc1nccs1)C(CC1CCCC1)c1ccc(Br)cc1 (stereo not drawn) | 201 to 202
COc1c(N2CCC(O)C(CC(C)C)C2)c(F)cc2c(=O)c(C(=O)O)cn(C3CC3)c12 (stereo not drawn) | 190 to 192
Fc1ccccc1-c1nc(Cl)nc2ccccc12 | 141

Structure (SMILES) | melting point [°C]
CC(=O)Nc1cc(-c2ccncc2)c[nH]c1=O | > 300
O=Cc1c(Cl)[nH]c2ccccc12 | 227
COc1cccc(C(=O)O)c1CCc1cccc(Cl)c1 | 91
CCN(c1ccc(OC)cc1)S(=O)(=O)c1cccc(C(=O)Nc2ccc(C#N)cc2)c1 | 168 to 169
COC(=O)C(CCBr)Oc1cc([N+](=O)[O-])cc2c1CCCC2 (stereo not drawn) | 99 to 100
O=P(O)(O)COc1c(Br)cc(-c2c3ccccc3c(Br)c3sc4ccccc4c23)cc1Br | 334 to 335
COC(=O)c1c2snnc2nn1C | 115 to 121
COC(=O)c1ccc2c(c1)N(C(C)C)C(=O)C(C)(C)O2 | 75 to 77
CC(=O)N1CCc2nc3cccc(N)c3c(C)c2CC1 | 150
O=C(NCCO)c1ccc(-c2nn(Cc3ccccc3)c3ccccc23)o1 | 119 to 127
Nc1cccc(-c2ccc(CCN3CCC4(CC3)NC(=O)N(CCc3ccccc3)C4=O)cc2)n1 | 176 to 180
Nc1cc(-c2cccnc2)nc(-c2ccco2)n1 | 233
CCCCCCCCCCCCc1cc2cc(C(=O)OCCCC)ccc2[nH]1 | 74 to 76
N#CC1(Nc2ccc(Cl)c(Cl)c2)CCN(C(=O)c2cc(C(F)(F)F)cc(C(F)(F)F)c2)CC1 | 195 to 197
CCCCCc1c(-c2ccc3c(Br)c(OCC(=O)O)ccc3c2)oc2ccccc12 | 159 to 161
O=C1c2ccccc2C(=O)N1CCc1cc(Br)cs1 | 115 to 117
O=C(CN1CCN(c2ccc(CO)c(Cl)c2)CC1)c1cc2ccccc2o1 | 169 to 172
COc1ccc(C2(CC3CO3)S(=O)(=O)CCCS2(=O)=O)cc1OC (stereo not drawn) | 175 to 176
O=C(NCCO)c1ccc(/C=C/c2ccccc2OCc2ccccc2)cc1 | 149 to 151
CCc1cnc2c(C#N)cnn2c1-c1cccc(C(F)(F)F)c1 | 135 to 137
CCn1c(C)nc(N2CCc3ccccc3CC2)c([N+](=O)[O-])c1=O | 145 to 147
COC(=O)c1cc(-c2ccc(-c3ccccc3)cc2)nn(CC(C)C)c1=O | 186 to 195
NC(=O)C(N)N=Nc1ccccc1C(=O)c1ccccn1 (stereo not drawn) | 210 to 212
O=C(COc1ccc2c(-c3ccccc3F)noc2c1Cl)NO | 151
CC(C)(C)OC(=O)n1ccc(-c2ccc(F)cc2)c1-c1ccc(S(C)(=O)=O)cc1 | 262

Structure (SMILES) | melting point [°C]
CC(CC(C)(C)c1ccccc1)N=C(O)C(Cl)=C(Cl)C(=O)O (stereo not drawn) | 106 to 109
COc1cc2c(c(Cl)c1Cl)CCC2 | 78 to 82
CC(C)(C)c1ccc(C(NC(=O)c2c(F)cccc2F)N2CCOCC2)cc1 (stereo not drawn) | 199 to 200
CCCCCCCCCCCCc1ccc2nc3c(c(Cl)c2c1)CCCC3 | 36 to 38
COc1cc(CNc2nc(NCCc3ccccn3)nc3ncccc23)cc(OC)c1 | 157 to 158
Cc1nc(N)nc(CCCCCCCCCCO)c1O | 103 to 104
O=C1CCc2cc(C(=O)[C@H]3CC[C@H]3C(=O)O)ccc2N1 (relative stereo) | 155 to 158
COC(CN(C)c1nccc(Oc2ccc(NC(=O)c3cc(F)cc(N4CCCCC4)c3)c3ccccc23)n1)OC | 135 to 136
O=C(O)c1cn(C2CC2)c2c(F)c(N3CCOC(CN4CCOCC4)C3)c(F)cc2c1=O (stereo not drawn) | 171 to 172
CCCCSc1ccc(C(O)CNC2CCCCC2)cc1C (stereo not drawn) | 136
CCCC(CCNC(=O)C(C#N)=Cc1cc(O)c(O)c(O)c1)NC(=O)C(C#N)=Cc1cc(O)c(O)c(O)c1 (stereo not drawn) | > 300
NC(=O)c1ccccc1C(=O)N(C[C@H]1CN(c2ccc(N3CCOCC3=O)cc2)C(=O)O1)C[C@H]1CN(c2ccc(N3CCOCC3=O)cc2)C(=O)O1 | 204
CSc1nnc(SCc2ccc(Cl)cc2)s1 | 77 to 78
CCn1cc(C(=O)O)c(=O)c2cc(F)c(-n3ccnc3)c(F)c21 | 283 to 288
CC(C)c1ccc(S(=O)(=O)n2c(CCCC(=O)O)cc3nc(Cl)ccc32)cc1 | 155
O=C(NOCC(O)CN1CCCCC1)NC1CCCCC1 (stereo not drawn) | 108 to 110
CCc1noc(-c2cn(-c3cccc(Oc4ccc(N)cc4)c3)cn2)n1 | 131 to 133
CCOC(=O)c1ccc(N2CCOCC2)cc1 | 82 to 83
CC(C)(C)Cc1c(CC(C)(C)C(=O)O)n(Cc2ccc(Cl)cc2)c2ccc(OCc3ccc4occc4n3)cc12 | 172 to 173
CC(O)c1nccc(=O)[nH]1 (stereo not drawn) | 121 to 124
CC(C)(C)c1ccc(C(=O)O)c(C(=O)O)c1 | 148 to 150
CC(=O)N(c1nc2cc3nc(N(C(C)=O)N4CCCCC4C)sc3cc2s1)N1CCCCC1C (stereo not drawn) | 242 to 245
CC(C)Oc1n[nH]c2nc(Oc3ccc(F)cc3F)ncc12 | 144 to 145
